Reference: ChEMBL document CHEMBL1201862, “PubChem BioAssay data set” (2004)
The source made the active and inactive calls.

Columns and labels:
[1] = target: T1, Oxysterols receptor LXR-beta (Homo sapiens, UniProt P55055); assay type: functional, cell-based;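 note: agonist activity at LXR measured by a cell-based luminescence readout across a dose range, run as a counterscreen for daf-12 agonists; potency for activation of Gal4-LXR reporter so compounds are agonists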
T1 sequence (P55055 whole entry): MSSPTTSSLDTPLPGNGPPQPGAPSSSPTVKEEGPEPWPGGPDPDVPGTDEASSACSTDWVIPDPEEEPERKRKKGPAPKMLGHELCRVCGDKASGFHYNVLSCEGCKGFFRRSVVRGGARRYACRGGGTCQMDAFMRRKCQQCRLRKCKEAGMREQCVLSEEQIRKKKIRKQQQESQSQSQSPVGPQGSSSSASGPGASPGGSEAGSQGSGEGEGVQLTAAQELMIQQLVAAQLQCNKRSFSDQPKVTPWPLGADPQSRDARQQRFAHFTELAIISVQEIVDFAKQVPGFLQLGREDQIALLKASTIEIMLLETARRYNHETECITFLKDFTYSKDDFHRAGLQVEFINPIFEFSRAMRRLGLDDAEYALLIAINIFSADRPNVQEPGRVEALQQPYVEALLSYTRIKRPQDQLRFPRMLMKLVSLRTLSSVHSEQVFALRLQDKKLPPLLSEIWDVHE

[2] = target: T1, Oxysterols receptor LXR-beta; experiment: LXR agonists, Gal4 luciferase reporter, dose response, counter-screen for ssDAF-12 agonist project, cell-based, luminescence, HEK293, S. stercoralis campaign (AID 720737); assay type: functional; details: read-out: IC50 (the source's name)
[3] = Luminescence-based cell-based high throughput dose response assay to identify activators of the DAF-12 from the parasite S. stercoralis (ssDAF-12).; assay type: functional
[4] = target: T2, Rac GTPase-activating protein 1 (Homo sapiens, UniProt Q9H0H5); experiment: blockers of MgcRacGAP-driven Rac1 GTP hydrolysis – biochemical, ADP Hunter fluorescence, primary and confirmatory, confirmation (AID 624330); assay type: functional
T2 sequence (Q9H0H5 whole entry): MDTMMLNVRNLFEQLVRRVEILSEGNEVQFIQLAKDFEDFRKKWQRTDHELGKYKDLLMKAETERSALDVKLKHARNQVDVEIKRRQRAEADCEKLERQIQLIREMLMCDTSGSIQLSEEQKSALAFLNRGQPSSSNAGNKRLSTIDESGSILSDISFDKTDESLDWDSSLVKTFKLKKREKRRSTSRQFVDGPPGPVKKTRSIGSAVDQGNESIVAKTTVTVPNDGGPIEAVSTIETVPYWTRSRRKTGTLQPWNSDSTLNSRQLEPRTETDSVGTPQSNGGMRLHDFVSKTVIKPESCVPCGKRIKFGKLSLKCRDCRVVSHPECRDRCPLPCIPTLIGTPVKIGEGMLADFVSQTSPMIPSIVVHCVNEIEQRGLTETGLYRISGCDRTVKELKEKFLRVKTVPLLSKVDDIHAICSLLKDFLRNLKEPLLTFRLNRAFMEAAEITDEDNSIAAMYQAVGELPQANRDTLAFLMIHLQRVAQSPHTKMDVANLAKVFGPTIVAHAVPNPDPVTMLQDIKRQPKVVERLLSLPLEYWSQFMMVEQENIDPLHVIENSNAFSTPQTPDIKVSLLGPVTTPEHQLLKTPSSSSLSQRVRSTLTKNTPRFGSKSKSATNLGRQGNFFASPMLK

[5] = viability loss in HeLa cells – cytotoxicity control for MgcRacGAP inhibitor project, dose response (AID 624300); assay type: functional
[6] = target: T3, Apoptotic protease-activating factor 1 (Homo sapiens, UniProt O14727); assay type: functional
T3 sequence (O14727 whole entry): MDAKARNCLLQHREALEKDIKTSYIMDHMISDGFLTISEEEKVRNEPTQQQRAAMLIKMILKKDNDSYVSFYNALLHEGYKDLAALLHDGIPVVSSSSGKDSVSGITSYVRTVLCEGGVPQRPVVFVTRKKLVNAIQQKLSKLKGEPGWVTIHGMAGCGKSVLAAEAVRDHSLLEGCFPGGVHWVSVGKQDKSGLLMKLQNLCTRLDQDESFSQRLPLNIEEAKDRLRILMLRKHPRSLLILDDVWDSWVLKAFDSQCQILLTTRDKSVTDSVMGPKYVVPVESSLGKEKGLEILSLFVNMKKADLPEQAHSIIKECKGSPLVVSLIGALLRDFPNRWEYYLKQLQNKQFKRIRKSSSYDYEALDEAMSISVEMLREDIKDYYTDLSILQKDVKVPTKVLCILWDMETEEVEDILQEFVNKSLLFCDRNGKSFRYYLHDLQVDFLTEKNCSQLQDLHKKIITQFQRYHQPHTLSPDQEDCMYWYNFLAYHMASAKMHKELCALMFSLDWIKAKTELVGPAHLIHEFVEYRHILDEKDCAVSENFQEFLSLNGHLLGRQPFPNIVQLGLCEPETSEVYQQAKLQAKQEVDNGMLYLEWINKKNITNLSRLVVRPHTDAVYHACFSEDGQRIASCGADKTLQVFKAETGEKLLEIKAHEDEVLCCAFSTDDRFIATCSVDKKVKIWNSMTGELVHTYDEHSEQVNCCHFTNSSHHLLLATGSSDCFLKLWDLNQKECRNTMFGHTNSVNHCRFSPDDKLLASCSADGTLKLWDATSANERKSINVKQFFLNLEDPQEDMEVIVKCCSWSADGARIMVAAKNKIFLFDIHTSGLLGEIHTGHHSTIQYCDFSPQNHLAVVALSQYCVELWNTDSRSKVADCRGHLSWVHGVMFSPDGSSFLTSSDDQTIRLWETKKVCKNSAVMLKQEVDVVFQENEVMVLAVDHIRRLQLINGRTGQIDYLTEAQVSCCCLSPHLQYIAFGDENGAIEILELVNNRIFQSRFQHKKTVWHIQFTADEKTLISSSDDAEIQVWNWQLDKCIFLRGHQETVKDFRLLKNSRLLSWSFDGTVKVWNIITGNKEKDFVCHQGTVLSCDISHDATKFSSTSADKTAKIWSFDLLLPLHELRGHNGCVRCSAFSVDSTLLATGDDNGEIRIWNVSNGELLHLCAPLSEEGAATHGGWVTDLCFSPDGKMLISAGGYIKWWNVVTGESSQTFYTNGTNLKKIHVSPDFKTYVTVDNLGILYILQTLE

[7] = target: Nonstructural protein 1 (Influenza A virus, UniProt Q194T2); assay type: functional, Influenza A virus (A/California/07/2009(H1N1))
[8] = tested on: INS1; experiment: INS-1E survival protection against cytokine death – cell-based, luminescence, retest, dose response (AID 449756); assay type: functional; details: Rattus norvegicus;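 note: cell death triggered by IL-1 beta plus TNF-alpha plus IFN-gamma mixture; protective hits raise ATP signal compared with cytokine alone wells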
[9] = HEK-293T viability loss after treatment – luminescence, T-cell screen hits, cytotoxicity control for TCR NF-kB inhibitor project, dose response (AID 489026); assay type: functional, cell-based;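 note: cells exposed to compound about 14 hours before the viability readout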
[10] = target: T4, Long-chain-fatty-acid--AMP ligase FadD28 (Mycobacterium tuberculosis, UniProt P9WQ59); experiment: Fluorescence polarization aasay to screen for inhibitors that compete for the binding of FadD28 to a bisubstrate Measured in Biochemical System Using Plate Reader - 2147-01_Inhibitor_Dose_CherryPick_Activity.; assay type: functional, Mycobacterium tuberculosis H37Rv
T4 sequence (P9WQ59 whole entry): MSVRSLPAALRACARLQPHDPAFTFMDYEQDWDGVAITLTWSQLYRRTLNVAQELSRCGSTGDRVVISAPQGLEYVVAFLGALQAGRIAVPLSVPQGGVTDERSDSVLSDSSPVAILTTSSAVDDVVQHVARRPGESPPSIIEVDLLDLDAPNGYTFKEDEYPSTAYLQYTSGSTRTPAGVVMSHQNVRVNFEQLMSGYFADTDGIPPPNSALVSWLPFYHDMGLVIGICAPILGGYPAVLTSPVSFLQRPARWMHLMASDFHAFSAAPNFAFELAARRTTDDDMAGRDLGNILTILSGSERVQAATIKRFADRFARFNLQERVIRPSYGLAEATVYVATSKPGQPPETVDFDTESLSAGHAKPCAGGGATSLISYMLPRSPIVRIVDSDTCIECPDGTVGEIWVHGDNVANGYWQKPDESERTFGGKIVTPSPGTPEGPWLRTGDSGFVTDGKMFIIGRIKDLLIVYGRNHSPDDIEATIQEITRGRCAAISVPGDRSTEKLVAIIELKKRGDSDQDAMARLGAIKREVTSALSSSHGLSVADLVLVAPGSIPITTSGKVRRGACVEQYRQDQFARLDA

[11] = target: Genome polyprotein (dengue virus type 2, UniProt P29990); experiment: flavivirus cap methylation enzyme inhibition – biochemical, confirmation dose response, primary screen (AID 588689); assay type: functional
[12] = target: T5, Small ubiquitin-related modifier 1 (Homo sapiens, UniProt P63165); experiment: SUMO1 protein-protein binding blockers, potency – biochemical, FRET, dose response (AID 624383); assay type: functional; details: read-out: IC50_Mean
[13] = target: Photoreceptor-specific nuclear receptor (Homo sapiens, UniProt Q9Y5X4); assay type: functional, cell-based;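 note: CHO-S cells with Gal4-NCOR and VP16-NR2E3 two-hybrid luciferase reporter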
[14] = tested on: Vero; experiment: viability of Vero cells under compound – cytotoxicity control for flavivirus capping enzyme inhibitors (AID 588742); assay type: functional; details: Chlorocebus sabaeus
[15] = target: T5, Small ubiquitin-related modifier 1; experiment: SUMO1 protein interaction blockers, potency – biochemical, fluorescence polarization, uHTS hits, dose response (AID 624382); assay type: functional; details: read-out: IC50_Mean
[16] = HGIII-sPLA2 enzyme inhibition potency – biochemical, QFRET, IC50, dose response (AID 743457);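 note: green fluorescence rise as the enzyme cleaves BODIPY PC-A2 in liposomes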
[17] = target: Cytochrome P450 3A4 (Homo sapiens, UniProt P08684);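 note: CYP3A4 tested as one member of a cytochrome P450 panel screen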
[18] = target: Cytochrome P450 2D6 (Homo sapiens, UniProt P10635);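 note: CYP2D6 member of a cytochrome P450 panel assay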
[19] = target: T6, Cytochrome P450 1A2 (Homo sapiens, UniProt P05177);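 note: PubChem cytochrome P450 panel assay, CYP1A2 panel member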
T6 sequence (P05177 whole entry): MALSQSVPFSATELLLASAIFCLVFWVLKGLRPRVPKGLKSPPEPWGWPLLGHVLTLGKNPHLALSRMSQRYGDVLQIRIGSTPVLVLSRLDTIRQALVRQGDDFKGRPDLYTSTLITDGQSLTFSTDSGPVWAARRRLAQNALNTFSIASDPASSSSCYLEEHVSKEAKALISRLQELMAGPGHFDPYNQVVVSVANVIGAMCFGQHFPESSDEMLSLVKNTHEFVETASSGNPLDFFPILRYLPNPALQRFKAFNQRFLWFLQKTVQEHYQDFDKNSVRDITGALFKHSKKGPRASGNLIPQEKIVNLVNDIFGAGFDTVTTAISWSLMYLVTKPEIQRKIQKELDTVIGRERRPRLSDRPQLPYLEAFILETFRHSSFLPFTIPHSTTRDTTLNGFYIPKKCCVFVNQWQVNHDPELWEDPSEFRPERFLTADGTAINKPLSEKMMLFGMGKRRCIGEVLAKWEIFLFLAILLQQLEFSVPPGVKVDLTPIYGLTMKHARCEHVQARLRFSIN

T5 sequence (P63165 whole entry, the tested form may be a part): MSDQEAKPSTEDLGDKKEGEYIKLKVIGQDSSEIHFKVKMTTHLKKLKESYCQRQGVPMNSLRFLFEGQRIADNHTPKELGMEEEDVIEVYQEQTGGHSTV
Chain of Photoreceptor-specific nuclear receptor (Q9Y5X4 whole entry, the tested form may be a part): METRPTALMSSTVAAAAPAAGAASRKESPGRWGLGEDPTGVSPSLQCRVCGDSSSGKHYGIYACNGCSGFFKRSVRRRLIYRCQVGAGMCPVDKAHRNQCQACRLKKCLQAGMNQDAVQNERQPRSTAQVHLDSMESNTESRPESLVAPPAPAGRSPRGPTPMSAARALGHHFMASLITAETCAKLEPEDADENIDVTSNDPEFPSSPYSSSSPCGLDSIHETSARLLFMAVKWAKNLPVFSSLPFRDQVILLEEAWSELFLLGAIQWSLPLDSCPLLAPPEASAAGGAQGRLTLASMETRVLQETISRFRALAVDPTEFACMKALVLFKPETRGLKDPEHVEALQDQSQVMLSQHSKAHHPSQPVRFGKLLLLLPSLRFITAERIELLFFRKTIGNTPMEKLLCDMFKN
Chain of Genome polyprotein (P29990 2492-3391 limits assumed): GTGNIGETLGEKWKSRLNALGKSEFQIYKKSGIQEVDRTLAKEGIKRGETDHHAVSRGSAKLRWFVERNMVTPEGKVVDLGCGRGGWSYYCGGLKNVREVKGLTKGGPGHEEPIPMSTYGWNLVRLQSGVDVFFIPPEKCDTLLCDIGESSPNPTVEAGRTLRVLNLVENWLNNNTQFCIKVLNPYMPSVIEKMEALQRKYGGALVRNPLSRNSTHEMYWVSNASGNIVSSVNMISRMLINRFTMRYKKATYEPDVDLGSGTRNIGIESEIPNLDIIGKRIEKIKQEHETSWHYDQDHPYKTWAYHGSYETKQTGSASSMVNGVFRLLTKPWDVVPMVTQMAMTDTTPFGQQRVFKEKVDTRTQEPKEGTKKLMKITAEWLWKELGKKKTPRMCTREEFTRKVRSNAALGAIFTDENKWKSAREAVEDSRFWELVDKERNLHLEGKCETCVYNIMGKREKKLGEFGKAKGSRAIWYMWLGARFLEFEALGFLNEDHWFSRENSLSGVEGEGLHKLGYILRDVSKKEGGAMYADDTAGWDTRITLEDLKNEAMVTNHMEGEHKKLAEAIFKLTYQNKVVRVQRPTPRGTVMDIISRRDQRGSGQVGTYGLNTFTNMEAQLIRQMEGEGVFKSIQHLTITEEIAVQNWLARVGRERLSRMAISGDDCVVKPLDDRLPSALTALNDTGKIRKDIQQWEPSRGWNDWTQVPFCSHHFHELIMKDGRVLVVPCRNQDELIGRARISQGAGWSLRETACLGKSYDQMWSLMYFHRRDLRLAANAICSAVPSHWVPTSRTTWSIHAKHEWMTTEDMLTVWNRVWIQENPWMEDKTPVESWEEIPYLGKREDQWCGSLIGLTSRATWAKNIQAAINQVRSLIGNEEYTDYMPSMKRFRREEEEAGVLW
Chain of Cytochrome P450 2D6 (P10635 whole entry): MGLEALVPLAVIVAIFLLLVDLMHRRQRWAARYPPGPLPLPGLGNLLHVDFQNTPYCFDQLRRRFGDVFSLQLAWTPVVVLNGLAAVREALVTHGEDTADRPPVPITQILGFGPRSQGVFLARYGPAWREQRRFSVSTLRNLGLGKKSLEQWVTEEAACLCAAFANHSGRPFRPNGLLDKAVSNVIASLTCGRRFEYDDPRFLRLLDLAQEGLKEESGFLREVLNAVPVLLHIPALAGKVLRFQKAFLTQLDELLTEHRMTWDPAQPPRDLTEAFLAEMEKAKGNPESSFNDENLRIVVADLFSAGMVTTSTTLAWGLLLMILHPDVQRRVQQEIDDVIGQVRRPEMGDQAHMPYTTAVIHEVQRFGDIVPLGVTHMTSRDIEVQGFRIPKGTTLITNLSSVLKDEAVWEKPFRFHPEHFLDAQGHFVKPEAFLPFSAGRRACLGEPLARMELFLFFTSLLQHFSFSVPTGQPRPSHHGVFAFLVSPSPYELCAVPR
Chain of Nonstructural protein 1 (Q194T2 whole entry): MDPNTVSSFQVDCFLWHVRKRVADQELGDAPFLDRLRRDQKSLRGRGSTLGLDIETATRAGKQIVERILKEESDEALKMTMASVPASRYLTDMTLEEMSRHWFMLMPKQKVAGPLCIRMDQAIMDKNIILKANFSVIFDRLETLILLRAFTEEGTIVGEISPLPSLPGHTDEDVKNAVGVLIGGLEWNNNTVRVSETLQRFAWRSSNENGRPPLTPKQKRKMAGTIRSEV
Chain of Cytochrome P450 3A4 (P08684 whole entry): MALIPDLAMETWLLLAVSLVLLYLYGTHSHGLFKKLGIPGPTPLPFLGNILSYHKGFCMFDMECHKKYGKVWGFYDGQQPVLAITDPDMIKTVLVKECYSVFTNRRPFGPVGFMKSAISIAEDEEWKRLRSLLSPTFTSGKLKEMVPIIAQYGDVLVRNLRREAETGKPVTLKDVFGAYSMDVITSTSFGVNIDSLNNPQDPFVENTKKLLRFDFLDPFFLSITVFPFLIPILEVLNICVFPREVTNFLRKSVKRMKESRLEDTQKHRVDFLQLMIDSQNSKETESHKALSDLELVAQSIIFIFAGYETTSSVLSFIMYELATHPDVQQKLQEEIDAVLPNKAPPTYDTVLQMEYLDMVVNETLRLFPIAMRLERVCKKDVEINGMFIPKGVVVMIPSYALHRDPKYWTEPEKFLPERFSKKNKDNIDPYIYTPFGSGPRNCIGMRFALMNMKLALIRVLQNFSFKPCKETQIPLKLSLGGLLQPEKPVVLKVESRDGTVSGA

## O=C1/C(=C\c2cccs2)Sc2ccc3ccccc3c21
[1]
  EC50: > 67.5 µM (inactive)
[2]
  EC50: > 67.6 µM (inactive)
[3]
  IC50: > 67.6 µM (inactive)

## Cc1ccc(S(=O)(=O)NC2=CC(=Nc3ccc(O)cc3)C(=O)c3ccccc32)cc1
[4]
  IC50: 78.2 µM (active)
[5]
  CC50: 2.86 µM (active)
[6]
  IC50: 2.14 µM (active)
[7]
  IC50: 7.33 µM (active)
[8]
  AC50: 0.588 µM (active)
[9]
  IC50: 1.58 µM (active)

## COc1ccc(CNC(=O)COC(=O)c2ccc(Br)c(S(=O)(=O)N3CCOCC3)c2)cc1
[10]
  AC50: > 100 µM (inactive)

## Cc1ccc(S(=O)(=O)N2[C@@H](c3ccc(Br)cc3)C(C(=O)O)=CC[C@H]2c2ccc(Cl)c(Cl)c2)cc1
[11]
  IC50: 42.9 µM (active)
[12]
  IC50: 6.25 µM (active)
[13]
  IC50: 5.2 µM (active)
[14]
  CC50: > 40 µM (active)
[15]
  IC50: > 66.6 µM (inactive)

## Cc1ccc(-c2nnc(SCC(=O)NN=C(S)Nc3ccccc3)n2C2CCCCC2)cc1
[16]
  IC50: > 122 µM (inactive)

## O=[N+]([O-])c1ccccc1/C=N/n1c(S)nnc1C1CCCCC1
[16]
  IC50: > 122 µM (inactive)

## CCN(CC)c1ccc(/C=N/NC(=O)c2ccc3c(c2)OCCO3)cc1
[10]
  AC50: 74.2 µM (active)

## NC(=Nc1ccccc1)NC(=O)c1nc(Cl)c(N)nc1N [PHENAMIL METHANESULFONATE]
[1]
  EC50: > 67.5 µM (inactive)
[17]
  AC50: 39.8 µM (inconclusive)
[18]
  AC50: 31.6 µM (inconclusive)
[19]
  AC50: 12.6 µM (inconclusive)
